From publication PMC12771125, “Compounds Reducing Human Sperm Motility as Potential Nonhormonal Contraceptives Identified Using a High-Throughput Phenotypic Screening Platform” (ACS Omega, 2025)
Values after ≈ are worked out from the molar mass of the structure shown. Like-named read-outs stand apart in the source and are kept apart here.

Assays:
[1] = tested on: human sperm; assay: Reduction of sperm motility (RSM) high-throughput phenotypic assay; assay type: cell-based; details: for EC50: Homo sapiens
Experimental: Using our previously established phenotypic human sperm motility screening platform, we screened a large subset (62,621 compounds) of one of our in-house diversity libraries (National Phenotypic Screening Centre (NPSC) Diversity Set) (Figure A,B). Briefly, human sperm are collected, isolated from semen, distributed into 384-well plates with test compounds, time-lapse images of sperm movement are recorded using a high-content imager, and progressive motility parameters are calculated using custom data analysis software. Sperm motility is complicated, and the mechanisms underpinning its regulation are not fully understood. Progressive motility, which is a measurement of the movement of forward progression of sperm, is most closely linked to sperm quality, and the percentage of progressively motile sperm compared to control is therefore the parameter utilized during the work described in this paper. […]
We used an HTS screening platform to assess the motility of live human spermatozoa. The platform and its development are described in detail in Gruber et al. , and summarized below in brief. The platform was used to screen compound libraries specifically focusing on reduction in motility. Interesting compounds were examined in further detail as possible starting points for a medicinal chemistry program. The experimental design is illustrated in Figure .
Donors were local to the Dundee area, over the age of 18, and had no known fertility problems and normal sperm concentration, motility and semen characteristics according to WHO 2021 criteria. Special category personal data for donors, such as ethnic origin, was not recorded in accordance with ethical approval and UK GDPR. Samples were obtained by masturbation, after sexual abstinence of 2–5 days, and delivered to the research laboratory within one h of production. Samples were allowed to liquefy at 37 °C for 15–30 min prior to preparation by discontinuous density gradient centrifugation (DGC). […] A minimum of 3 prepared donor samples were routinely pooled to reduce donor-to-donor variability for primary screening assays. Pooled samples were incubated for 3 h at 37 °C under noncapacitating conditions.
In brief, screening batches of cells were transferred to a robotic platform (HighRes Biosolutions Inc.) and maintained during the screen at 37 °C at 5% CO2. Assay-ready 384-well plates containing compounds were prepared prior to the screen and filled with approximately 10,000 spermatozoa (20 μL) per well using a liquid handling system (MultiDrop Combi; ThermoFisher). These plates were incubated for 10 min prior to imaging. The HTS system utilized a Yokogawa CV7000 Cell Voyager high-throughput microscope to record time-lapse images from 2 positions in each well. An adaptation of a tracking algorithm, Trackpy v0.4.1 was utilized to track individual spermatozoa within each well and obtain kinematic parameters. Within the compound-test plates, DMSO was used as the vehicle control.
All steps were performed as previously described. , In summary, data from every compound well were normalized to those from in-plate DMSO controls (wells containing the same amount of DMSO as compound wells). Two positions were recorded in every well, and the average of those positions was used for calculating % of control (median value/DMSO median) × 100. Each plate contained 16 DMSO control wells. Median curvilinear velocity (VCL) was used as the primary readout for the NPSC Diversity Set screened at 6 μM, and percentage progressive motility (PM) was used for all other libraries screened. Hits from the primary screening were chosen based on the % change compared to the control. In these experiments, an RSM of ≥20% compared to negative controls (DMSO) was chosen as a cutoff for potential progression.
In a screening program of this scale, a significant number of compounds are likely to have a negative effect on sperm motility, but a number will show general toxicity. […]

[2] = tested on: HepG2 cells; assay: HepG2 cytotoxicity assay (resazurin, 72 h); assay type: cell-based, human; details: Homo sapiens, HepG2, 72 h; read-out: HepG2 pEC50 (converted)
Source text: Our overarching aims for investigating our chemical series and deciding which ones had the potential for further progression were to achieve adequate potency in our motility assay, suitable solubility, and minimal cytotoxicity in HepG2 cells. This third point was often the most challenging, as multiple series had cytotoxicity in HepG2 cells. This observation is perhaps not surprising; many potential targets in sperm cells can also be found in somatic cells. Our cytotoxicity assay is run with an incubation time of 72 h, to give time for gross cytotoxic effects to become apparent.
Compound dilution curves were plated directly using a Labcyte Echo 550 acoustic dispenser (125 nL) in 384-well white clear-bottom plates (Greiner). HepG2 cells (ATCCHepG2 HB-8065) were cultured in minimum essential medium (supplemented with glutamax) with 10% FCS and plated (25 μL) using a WellMate dispenser ([…]) and incubated for 72 h. Doxorubicin was used as a positive control drug. Resazurin was then added to each well at a final concentration of 45 μM, and fluorescence was measured using a PHERAstar LS (BMG Labtech) after 4 h of further incubation (excitation of 528 nm and emission of 590 nm). Raw data were normalized to controls and expressed as % growth.
Figure S2: Concentration-response curves from high throughput HepG2 viability assay. Each compound was tested in duplicate and the curves of each replicate are shown. The reported values in the tables are an average of the 2 pEC50 values obtained. […]
determine 0% effect, positive control used to determine 100% effect).
Hit compounds 1a, 6b and 7a were repurchased from commercial suppliers including enamine and […]

[3] = Aqueous solubility; assay type: physicochemical
[4] = 10 min, 10 min incubation, reduction of progressive sperm motility relative to control, reported <X (neg. log of top concentration) if largest reduction <70%, read-out: RSM pEC50 10 mins (converted)
[5] = 3 h incubation, reduction of progressive sperm motility relative to control, reported <X if largest reduction <70%, read-out: RSM pEC50 3 hrs (converted)
[6] = 6 h incubation, reduction of progressive sperm motility relative to control, reported <X if largest reduction <70%, read-out: RSM pEC50 6 hrs (converted)

Row | Molecule | solubility [3] | EC50 [1, 4] | EC50 [1, 5] | EC50 [1, 6] | RSM pEC50 10 mins ([1]; 10 min incubation, reduction of progressive sperm motility relative to control, reported <X (neg. log of top concentration) if largest reduction <70%) | RSM pEC50 3 hrs ([1]; 3 h incubation, reduction of progressive sperm motility relative to control, reported <X if largest reduction <70%) | RSM pEC50 6 hrs ([1]; 6 h incubation, reduction of progressive sperm motility relative to control, reported <X if largest reduction <70%) | EC50 [2] | difference between pEC50 in the sperm motility assay and pEC50 in the HepG2 cytotoxicity assay [1]
1 | 2-(Phenoxymethyl)-N-(4-(pyridin-2-yl)thiazol-2-yl)benzamide [Compound 3a] |  |  |  |  | <4.5 | 5.0 | 5.3 |  | 
2 | O=C(Nc1ccc([N+](=O)[O-])cc1Cl)c1cc(Cl)ccc1O [Compound 1a, Niclosamide, reference compound] | 4.5 µM (≈ 1.47 µg/mL) | 1 µM |  |  |  |  |  | 3.16 µM | 0.5 log units
3 | NCCN(C(=O)c1ccc(Cl)cc1Cl)c1ccc(OCc2ccc(Cl)cc2)cc1 [Compound 1b, N-(2-Aminoethyl)-2,4-dichloro-N-(4-((4-chlorobenzyl)oxy)phenyl)benzamide] | 53 µM (≈ 23.8 µg/mL) | 12.6 µM | 20 µM | 10 µM |  |  |  | 5.01 µM | 
4 | Cc1cc(NC(=O)c2cc(Cl)ccc2O)ccc1C#N [Compound 1c] | 60 µM (≈ 17.2 µg/mL) | 3.98 µM |  |  |  |  |  | 25.1 µM | 
5 | N#Cc1ccc(NC(=O)c2cc(Cl)ccc2O)cc1F [Compound 1d] | 35 µM (≈ 10.2 µg/mL) | 2.51 µM |  |  |  |  |  | 6.31 µM | 
6 | N#Cc1ccc(NC(=O)c2cc(Cl)ccc2O)cc1Cl [Compound 1e] | 2.3 µM (≈ 0.706 µg/mL) | 2.51 µM |  |  |  |  |  | 5.01 µM | 
7 | O=C(Nc1cccc(Cl)c1)c1cc(Cl)ccc1O [Compound 1f] | 4.1 µM (≈ 1.16 µg/mL) | 5.01 µM |  |  |  |  |  | 6.31 µM | 
8 | N#Cc1ccc(NC(=O)c2cc(Cl)ccc2O)cc1 [Compound 1g] | 11 µM (≈ 3 µg/mL) | 5.01 µM |  |  |  |  |  | 2.51 µM | 
9 | N#Cc1ccc(NC(=O)c2cc(Cl)ccc2O)cn1 [Compound 1h] | 100 µM (≈ 27.4 µg/mL) | > 20 µM |  |  |  |  |  | 20 µM | 
10 | N#Cc1ccc(NC(=O)c2ccccc2)cc1Cl [Compound 1i] |  | > 20 µM |  |  |  |  |  | 39.8 µM | 
11 | COc1ccc(Cl)cc1C(=O)Nc1ccc(C#N)c(Cl)c1 [Compound 1j] | 0.19 µM (≈ 0.061 µg/mL) | > 20 µM |  |  |  |  |  | > 100 µM | 
12 | O=C(Nc1ccc(OCc2ccccc2)cc1)c1ccccc1Cl [Compound 1k] | 0.64 µM (≈ 0.216 µg/mL) | > 20 µM |  |  |  |  |  | > 100 µM | 
13 | NCCN(C(=O)c1ccccc1Cl)c1ccc(Cl)cc1 [Compound 1l] | 240 µM (≈ 74.2 µg/mL) | > 31.6 µM | > 31.6 µM | > 31.6 µM |  |  |  | 79.4 µM | 
14 | NCCN(C(=O)c1ccc(F)cc1Cl)c1ccc(Cl)cc1 [Compound 1m] |  | > 31.6 µM | > 31.6 µM | > 31.6 µM |  |  |  | 63.1 µM | 
15 | NCCN(C(=O)c1ccc(F)cc1F)c1ccc(Cl)cc1 [Compound 1n] | 73 µM (≈ 22.7 µg/mL) | > 31.6 µM | > 31.6 µM | > 31.6 µM |  |  |  | > 100 µM | 
16 | O=C(Nc1nc(C2CC2)cs1)Nc1ccc(F)cc1F [Compound 3h] |  | > 31.6 µM | > 31.6 µM | > 31.6 µM |  |  |  | 63.1 µM | 
17 | O=C(Nc1nc(-c2ccccn2)co1)Nc1ccc(F)cc1F [Compound 3n] |  | > 31.6 µM | > 31.6 µM | > 31.6 µM |  |  |  | > 100 µM | 
18 | Fc1cccc(CN2CCC3(CCNCC3)CC2)c1 [Compound 9d] |  | > 31.6 µM | > 31.6 µM | > 31.6 µM |  |  |  | 63.1 µM | 

Continued, in another order:

Row | solubility [3] | EC50 [1, 4] | EC50 [1, 5] | EC50 [1, 6] | Molecule | RSM pEC50 10 mins ([1]; 10 min incubation, reduction of progressive sperm motility relative to control, reported <X (neg. log of top concentration) if largest reduction <70%) | RSM pEC50 3 hrs ([1]; 3 h incubation, reduction of progressive sperm motility relative to control, reported <X if largest reduction <70%) | RSM pEC50 6 hrs ([1]; 6 h incubation, reduction of progressive sperm motility relative to control, reported <X if largest reduction <70%) | EC50 [2] | difference between pEC50 in the sperm motility assay and pEC50 in the HepG2 cytotoxicity assay [1]
19 |  | > 31.6 µM | > 31.6 µM | 0.501 µM | CCN(CC)Cc1cc(Nc2ccnc3cc(Cl)ccc23)ccc1O [Compound 5a, 4-((7-Chloroquinolin-4-yl)amino)-2-((diethylamino)methyl)phenol, reference compound] |  |  |  | 20 µM | 
20 |  | > 31.6 µM | > 31.6 µM | 0.2 µM | Oc1ccc(Nc2ccnc3cc(Cl)ccc23)cc1CN1CCCC1 [Compound 5b] |  |  |  | 12.6 µM | 
21 |  | > 31.6 µM | > 31.6 µM | 0.794 µM | Oc1ccc(Nc2ccnc3cc(Cl)ccc23)cc1CN1CCNCC1 [Compound 5c] |  |  |  | 12.6 µM | 
22 |  | > 31.6 µM | > 31.6 µM | > 31.6 µM | Fc1ccc(Nc2ccnc3cc(Cl)ccc23)cc1CN1CCCC1 [Compound 5h] |  |  |  |  | 
23 |  | > 31.6 µM | 5.01 µM | 1.58 µM | Cc1cc(C)nc(-n2nc(C)cc2Nc2ccccc2)n1 [Compound 6a, 1-(4,6-dimethylpyrimidin-2-yl)-3-methyl-N-phenyl-1H-pyrazol-5-amine] |  |  |  |  | 
24 |  | 12.6 µM | 2 µM | 0.794 µM | O=C1COC2(CCN(Cc3ccc(F)cc3)CC2)CN1 [Compound 8a, 9-(4-Fluorobenzyl)-1-oxa-4,9-diazaspiro[5.5]undecan-3-one] |  |  |  | > 100 µM | 
25 |  | 15.8 µM | 1.26 µM | 0.501 µM | O=C1COC2(CCN(Cc3ccncc3)CC2)CN1 [Compound 8b] |  |  |  |  | 
26 |  | > 31.6 µM | 6.31 µM | 1.58 µM | O=C1COC2(CCN(Cc3cccnc3)CC2)CN1 [Compound 8c] |  |  |  |  | 
27 |  | > 31.6 µM | 2 µM | 1 µM | O=C1COC2(CCN(Cc3ccsc3)CC2)CN1 [Compound 8d] |  |  |  |  | 
28 |  | > 31.6 µM | 3.16 µM | 1.26 µM | O=C1COC2(CCN(Cc3ccoc3)CC2)CN1 [Compound 8e] |  |  |  |  | 
29 |  | > 31.6 µM | > 31.6 µM | 25.1 µM | O=C1COC2(CCN(Cc3ccco3)CC2)CN1 [Compound 8f] |  |  |  |  | 
30 |  | > 31.6 µM | > 31.6 µM | > 31.6 µM | Cc1ccc(CN2CCC3(CC2)CNC(=O)CO3)cc1 [Compound 8g] |  |  |  |  | 
31 |  | > 31.6 µM | > 31.6 µM | > 31.6 µM | CN1CC2(CCN(Cc3ccc(F)cc3)CC2)OCC1=O [Compound 8h] |  |  |  | > 100 µM | 
32 |  | > 31.6 µM | 6.31 µM | 3.98 µM | NC(=O)N1CCC2(CCN(Cc3cccc(F)c3)CC2)CC1 [Compound 9a, 9-(3-Fluorobenzyl)-3,9-diazaspiro[5.5]undecane-3-carboxamide] |  |  |  | > 100 µM | 
33 |  | > 31.6 µM | > 31.6 µM | > 31.6 µM | CC(=O)N1CCC2(CCN(Cc3cccc(F)c3)CC2)CC1 [Compound 9b] |  |  |  |  | 
34 |  | > 31.6 µM | > 31.6 µM | > 31.6 µM | CNC(=O)N1CCC2(CCN(Cc3cccc(F)c3)CC2)CC1 [Compound 9c] |  |  |  |  | 
35 |  | > 31.6 µM | > 31.6 µM | > 31.6 µM | NC(=O)N1CCC2(CCN(Cc3ccc(F)cc3)CC2)CC1 [Compound 9e] |  |  |  |  | 
